Laboratory results from patent publication US10222368B2 (priority 2012, dated 2019).

Columns and labels:
[1] = target: T1, mu opiate receptor (MOR) (Rattus norvegicus, UniProt P33535); test: MOR agonist activity using [35S]GTPγS binding assay in striatal membranes; assay type: biochemical; settings: for MOR agonist activity, [35S]GTPγS binding, FLNA-binding compound as agonist at 0.1 μM: 0.1 μM compound; for MOR agonist activity, [35S]GTPγS binding, FLNA-binding compound as agonist at 0.1 μM / MOR agonist activity, [35S]GTPγS binding, 1 μM + BFNA / MOR agonist activity, [35S]GTPγS binding, FLNA-binding compound as agonist at 1 μM: striatal membranes; for MOR agonist activity, [35S]GTPγS binding, FLNA-binding compound as agonist at 0.1 μM / MOR agonist activity, [35S]GTPγS binding, FLNA-binding compound as agonist at 1 μM: Series C-2; for MOR agonist activity, [35S]GTPγS binding, 1 μM + BFNA: 1 μM compound + 1 μM β-FNA (MOR antagonist); for MOR agonist activity, [35S]GTPγS binding, FLNA-binding compound as agonist at 1 μM: 1 μM compound; for MOR agonist activity ([35S]GTPγS binding to Gαo), preliminary study: average of two runs
T1 construct: from tissue; host or cells: striatal tissue (membrane preparation)
T1 sequence (P33535 whole entry): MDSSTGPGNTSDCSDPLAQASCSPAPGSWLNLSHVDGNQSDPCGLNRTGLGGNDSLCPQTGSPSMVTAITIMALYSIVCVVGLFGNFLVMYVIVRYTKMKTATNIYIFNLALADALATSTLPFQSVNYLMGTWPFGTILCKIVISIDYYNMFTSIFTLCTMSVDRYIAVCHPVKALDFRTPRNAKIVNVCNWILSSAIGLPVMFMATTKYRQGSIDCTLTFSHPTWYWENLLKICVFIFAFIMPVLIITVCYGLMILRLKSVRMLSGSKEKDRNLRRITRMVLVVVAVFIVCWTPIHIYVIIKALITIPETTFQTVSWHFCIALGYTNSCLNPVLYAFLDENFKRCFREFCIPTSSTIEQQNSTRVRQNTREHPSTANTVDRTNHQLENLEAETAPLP
Protocol: To assess the mu opiate receptor (MOR) agonist activity of positive compounds from the FLNA screening, compounds were tested in a [^35S]GTPγS binding assay using striatal membranes. […] This assay measures a functional consequence of receptor occupancy at one of the earliest receptor-mediated events. The assay permits for traditional pharmacological parameters of potency, efficacy and antagonist affinity, with the advantage that agonist measures are not subjected to amplification or other modulation that may occur when analyzing parameters further downstream of the receptor.
Thus, striatal tissue was homogenized in 10 volumes of ice cold 25 mM HEPES buffer, pH 7.4, which contained 1 mM EGTA, 100 mM sucrose, 50 μg/ml leupeptin, 0.04 mM PMSF, 2 μg/ml soybean trypsin inhibitor and 0.2% 2-mercaptoethanol. The homogenates were centrifuged at 800×g for 5 minutes and the supernatants were centrifuged at 49,000×g for 20 minutes.
The resultant striatal membrane preparation (200 μg) was admixed and maintained (incubated) at 30° C. for 5 minutes in reaction buffer as above that additionally contained 1 mM MgCl2 and 0.5 nM [^35S]GTPγS (0.1 μCi/assay, PerkinElmer Life and Analytical Sciences) in a total volume of 250 μl and continued for 5 minutes in the absence or presence of 0.1-10 μM of an assayed compound of interest. The reaction was terminated by dilution with 750 μl of ice-cold reaction buffer that contained 20 mM MgCl2 and 1 mM EGTA and immediate centrifugation at 16,000×g for 5 minutes.
Normal rabbit serum (1 μl) was added to 1 ml of lysate and incubated at 25° C. for 30 minutes. Nonspecific immune complexes were removed by incubation with 25 μl of protein A/G-conjugated agarose beads at 25° C. for 30 minutes followed by centrifugation at 5,000×g at 4° C. for 5 minutes. The supernatant was divided and separately incubated at 25° C. for 30 minutes with antibodies raised against Gαo proteins (1:1,000 dilutions).
The immunocomplexes so formed were collected by incubation at 25° C. for 30 minutes with 40 μl of agarose-conjugated protein A/G beads and centrifugation at 5,000×g at 4° C. for 5 minutes. The pellet was washed and suspended in buffer containing 50 mM Tris-HCl, pH 8.0, and 1% NP-40. The radioactivity in the suspension was determined by liquid scintillation spectrometry.

[2] = target: FLNA pentapeptide VAKGL (SEQ ID NO: 1) (Homo sapiens, UniProt P21333); test: FITC-NLX-based FLNA screening assay; assay type: binding; settings: for Percent Binding Inhibition (FITC-NLX binding to Bn-VAKGL): 10 nM FITC-NLX

Compound	MOR agonist activity, [35S]GTPγS binding, FLNA-binding compound as agonist at 0.1 μM [1]	MOR agonist activity, [35S]GTPγS binding, 1 μM + BFNA [1]	MOR agonist activity, [35S]GTPγS binding, FLNA-binding compound as agonist at 1 μM [1]	further results
COc1ccc(S(=O)(=O)N2CCC3(CC2)NCCC(=O)N3)cc1 [Compound C0142M]	143.7%	98.7%	192.5%	–
O=S(=O)(c1cccc2cccnc12)N1CCC2(CC1)OCCN2S(=O)(=O)c1cccc2cccnc12 [Compound C0143M]	81.0%	86.5%	193.3%	–
COc1ccc(S(=O)(=O)N2CCC3(NCCO3)C3CCCCC32)cc1 (stereo not drawn) [Compound C0144M-2]	186.3%	125.9%	295.9%	–
COc1ccc(S(=O)(=O)N2CCOC23CCCNC3)cc1 (stereo not drawn) [Compound C0145M-3]	193.0%	87.0%	289.2%	–
O=C1CNC2(CCN(S(=O)(=O)c3ccc(O)cc3)CC2)N1Cc1ccccc1 [Compound C0148M]	–	–	–	Percent Binding Inhibition (FITC-NLX binding to Bn-VAKGL) ([2]; 0.01 μM FLNA-binding compound): 46.2%; Percent Binding Inhibition (FITC-NLX binding to Bn-VAKGL) ([2]; 0.1 μM FLNA-binding compound): 52.0%; Percent Binding Inhibition (FITC-NLX binding to Bn-VAKGL) ([2]; 1 μM FLNA-binding compound): 57.0%
O=S(=O)(c1ccccc1Oc1ccccc1)N1CCC2(CC1)NCCO2 [Compound C0149M-2]	209.8%	93.4%	406.7%	–
COc1ccc(NC(=O)N2CCC3(CC2)NCCO3)cc1 [Compound C0151M-2]	346.8%	212.8%	397.6%	–
C[C@@H](NC(=O)[C@@H](N)Cc1ccc(O)cc1)C(=O)NCC(=O)N(C)[C@@H](Cc1ccccc1)C(=O)NCCO [DAMGO, [D-Ala2, N-MePhe4, Gly-ol]-enkephalin, reference compound]	168.5%	53.2%	266.1%	MOR agonist activity ([35S]GTPγS binding to Gαo), preliminary study ([1]; 0.1 μM compound as agonist): 144.7%; MOR agonist activity ([35S]GTPγS binding to Gαo), preliminary study ([1]; 1 μM + βNFA): 56.8%; MOR agonist activity ([35S]GTPγS binding to Gαo), preliminary study ([1]; 1 μM compound as agonist): 233.4%
COc1ccc(S(=O)(=O)N2CCSC23CCNCC3)cc1 [S-C0027]	156.2%	56.2%	286.8%	–
CN1CC[C@]23c4c5ccc(O)c4O[C@H]2[C@@H](O)C=C[C@H]3[C@H]1C5 [morphine, reference compound]	–	–	–	Binding to the FLNA pentapeptide of SEQ ID NO: 1 (in words) [2]: do not bind
Nalbuphine [reference compound]	–	–	–	Binding to the FLNA pentapeptide of SEQ ID NO: 1 (in words) [2]: bind well
Nalorphine [reference compound]	–	–	–	Binding to the FLNA pentapeptide of SEQ ID NO: 1 (in words) [2]: bind well
